Data: ChEMBL document CHEMBL1145416, “Design, synthesis, and biological evaluation of pyrazinones containing novel P1 needles as inhibitors of TF/VIIa” (Bioorg Med Chem Lett, 2007)

Columns and labels:
Coagulation factor VII = biological target: T1, Coagulation factor VII (Homo sapiens, UniProt P08709); test: Inhibition of factor 7a
T1 sequence (P08709 whole entry): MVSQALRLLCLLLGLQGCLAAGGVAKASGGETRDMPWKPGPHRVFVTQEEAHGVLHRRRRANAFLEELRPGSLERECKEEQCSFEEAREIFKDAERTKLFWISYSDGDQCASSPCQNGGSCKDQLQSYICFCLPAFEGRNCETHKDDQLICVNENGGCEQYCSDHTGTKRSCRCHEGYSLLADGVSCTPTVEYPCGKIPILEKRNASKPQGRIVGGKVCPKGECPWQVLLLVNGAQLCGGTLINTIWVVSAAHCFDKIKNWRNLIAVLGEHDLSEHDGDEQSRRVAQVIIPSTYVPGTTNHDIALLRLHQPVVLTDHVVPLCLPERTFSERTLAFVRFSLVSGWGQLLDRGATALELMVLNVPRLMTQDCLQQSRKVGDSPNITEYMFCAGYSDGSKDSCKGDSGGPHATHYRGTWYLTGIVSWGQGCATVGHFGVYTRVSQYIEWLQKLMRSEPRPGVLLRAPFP

Prothrombin = Prothrombin (Homo sapiens, UniProt P00734); test: Inhibition of factor 2a
Trypsin = Trypsin (Homo sapiens, UniProt P07477+P07478+P35030); test: Inhibition of trypsin; assay type: protein assay
Coagulation factor X = Coagulation factor X (Homo sapiens, UniProt P00742); test: Inhibition of factor 10a
Chain of Coagulation factor X (P00742 41-179 limits assumed): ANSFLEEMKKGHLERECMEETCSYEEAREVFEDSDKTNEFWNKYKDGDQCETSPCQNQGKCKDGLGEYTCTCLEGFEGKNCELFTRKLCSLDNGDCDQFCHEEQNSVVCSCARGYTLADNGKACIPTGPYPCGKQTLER
Chain of Coagulation factor X (P00742 235-488 limits assumed): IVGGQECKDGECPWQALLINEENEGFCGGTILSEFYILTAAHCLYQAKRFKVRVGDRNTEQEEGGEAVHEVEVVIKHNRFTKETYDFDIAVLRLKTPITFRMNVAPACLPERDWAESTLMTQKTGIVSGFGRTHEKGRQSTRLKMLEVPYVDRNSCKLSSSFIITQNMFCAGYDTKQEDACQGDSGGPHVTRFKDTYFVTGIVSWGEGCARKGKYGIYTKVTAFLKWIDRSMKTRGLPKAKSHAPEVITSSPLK

| Structure (SMILES) | IC50 (Coagulation factor VII) [µM] | IC50 (Prothrombin) [µM] | IC50 (Trypsin) [µM] | IC50 (Coagulation factor X) [µM] |
| --- | --- | --- | --- | --- |
| N=C(N)c1c(O)c(F)c(CNC(=O)Cn2c(-c3cccc(N)c3)c(Cl)nc(NC3CCC3)c2=O)c(F)c1F | 0.11 | > 100 | – | > 100 |
| N=C(N)c1c(F)c(F)c(CNC(=O)Cn2c(-c3cccc(N)c3)c(Cl)nc(NC3CCC3)c2=O)c(F)c1F | 5.48 | > 100 | – | > 30 |
| Nc1cccc(-c2c(Cl)nc(NC3CCC3)c(=O)n2CC(=O)NCc2ccc3c(N)noc3c2)c1 | – | > 30 | > 30 | > 30 |
| Nc1cccc(-c2c(Cl)nc(NC3CCC3)c(=O)n2CC(=O)NCc2ccc3c(N)nsc3c2)c1 | – | – | – | > 30 |
| N=c1[nH][nH]c(=O)c2cc(CNC(=O)Cn3c(-c4cccc(N)c4)c(Cl)nc(NC4CCC4)c3=O)ccc12 | > 30 | > 30 | – | > 30 |
| Nc1cccc(-c2c(Cl)nc(NC3CCC3)c(=O)n2CC(=O)NCc2ccc3c(N)nccc3c2)c1 | > 30 | > 30 | > 30 | > 30 |
| Nc1cccc(-c2c(Cl)nc(NC3CCC3)c(=O)n2CC(=O)NCCc2cnc[nH]2)c1 | > 30 | > 30 | > 30 | > 30 |
| Nc1cccc(-c2c(Cl)nc(NC3CCC3)c(=O)n2CC(=O)NCCc2cnc(N)[nH]2)c1 | > 30 | > 30 | 6.2 | > 30 |
| NC1=NCCSc2cc(CNC(=O)Cn3c(-c4cccc(N)c4)c(Cl)nc(NC4CCC4)c3=O)ccc21 | > 30 | > 30 | > 30 | > 30 |

Results, then the compound that gave them:

| IC50 (Coagulation factor VII) [µM] | IC50 (Prothrombin) [µM] | IC50 (Trypsin) [µM] | IC50 (Coagulation factor X) [µM] | Structure (SMILES) |
| --- | --- | --- | --- | --- |
| 0.19 | > 100 | 7.55 | > 100 | N=C(N)c1ccc(CNC(=O)Cn2c(-c3cccc(N)c3)c(Cl)nc(NC3CCC3)c2=O)cc1O |
| 0.79 | > 30 | 0.23 | > 30 | N=C(N)c1ccc(CNC(=O)Cn2c(-c3cccc(N)c3)c(Cl)nc(NC3CCC3)c2=O)c(C(F)(F)F)c1 |
| – | > 100 | – | > 100 | N/N=C(/N)c1ccc(CNC(=O)Cn2c(-c3cccc(N)c3)c(Cl)nc(NC3CCC3)c2=O)cc1 |
| – | – | – | > 30 | N=C(N)c1ccc(C(=O)NCCn2c(-c3cccc(N)c3)c(Cl)nc(NC3CCC3)c2=O)cc1 |
| > 30 | > 30 | – | > 30 | Nc1cccc(-c2c(Cl)nc(NC3CCC3)c(=O)n2CC(=O)NCc2ccnc(N)n2)c1 |
| 30 | > 30 | 9.1 | > 30 | N=C(N)c1ccc(S(=O)(=O)NCCn2c(-c3cccc(N)c3)c(Cl)nc(NC3CCC3)c2=O)cc1 |
| 0.02 | 10.6 | – | 0.04 | Nc1cccc(-c2c(Cl)nc(NC3CCC3)c(=O)n2CC(=O)NCc2ccccc2)c1 |
| 0.04 | – | > 30 | 0.05 | N=C(N)c1ccc(CNC(=O)Cn2c(-c3cccc(N)c3)c(Cl)nc(NC3CCC3)c2=O)c(F)c1 |
| – | > 30 | – | > 30 | N=C(N)c1ccc(CNC(=O)Cn2c(-c3cccc(N)c3)c(Cl)nc(NC3CCC3)c2=O)cc1F |
